Assay [1] has as its system Single Olfactory Cells Responsive to Volatiles Emanating from a Crushed Cotton Square. The experiment in a line: Single-cell electrophysiology: action potentials from single olfactory cells. The assay is classed as cell-based, Anthonomus grandis. The text has this:
Single-cell recording techniques are described in detail elswhere [Dickens, Mitt. Schweiz. Entomol. Ges. 52: 203 (1979); Dickens et al., J. Chem. Ecol. 10: 583 (1984)]. In brief, microelectrodes used for recordings were constructed from 50.8 μm diameter tungsten wire electrolytically sharpened to a tip of 1-2 μm. The recording electrode was positioned under optical control (150-200 X) with a Leitz high-power micromanipulator near either the base of one of the three sensory bands encircling the club, or the base of an individual sensillum just distal to each sensory band region. The ground electrode was inserted in either the rostrum or distal end of the scape. Action potentials were amplified and conditioned by a Grass P-15 preamplifier and Tektronix 5A22N amplifier prior to visualization on a Tektronix 5223 digitizing oscilloscope. The signal then passed through a Teac R51-D data recorder for recording on cassette tapes prior to visualization on a Tektronix 5111 analog oscilloscope. Data were photographed from the analog oscilloscope with a Tektronix C-5C oscilloscope camera. Trains of action potentials were counted visually.
Upon obtaining a single cell preparation, odorous stimuli were presented every 3 min. […] The first two stimuli tested were volatiles emanating from 1 μg of grandlure, followed by volatiles emanating from a crushed cotton square. These two stimuli served to determine whether the cell was activated by the attractive pheromone of the boll weevil and/or volatiles emanating from its food source.

In assay [2] the test system is Boll Weevils. As to the kind of experiment: Competitive field test with released weevils, triangular trap array. Type of assay: in vivo, Anthonomus grandis. As for the experimental part:
Two series of field tests were performed involving released boll weevils, in which grandlure was placed in competition with grandlure + the synergist. In the first series of experiments, a triangular array of traps was used. One trap was placed at each corner of a 20 m equilateral triangle (total of three traps). The three treatments released in this triangular array of traps were: 1) grandlure 3 mg; 2) grandlure 3 mg+synergist 100 mg; and 3) synergist 100 mg. The three synergists tested in these experiments were: trans-2-hexen-1-ol, 1-hexanol, and cis-3-hexen-1-ol. Cigarette filters were used to release the experimental odorants. One hundred insets (50 males and 50 females) were released along a line 20 m from each side of the triangle (300 insects total) at ca. 1000 hrs prior to baiting of the traps at 1200 hrs. Traps were check and insects were removed at 1400 hrs, 1600 hrs, and 1800 hrs, the times at which the test was terminated.

In assay [3] the test system is Boll Weevils. The experiment in a line: Competitive field tests in Mississippi cotton fields, 4-week test period. The conditions noted are these: 10 mg and 100 mg, P<0.01, paired t-test. The assay is classed as in vivo, Anthonomus grandis. As for the experimental part: Three cotton fields were used in this study to determine the effectiveness of trans-2-hexen-1-ol in synergizing grandlure in a practical situation. The experimental design consisted of placing four traps at the corners of a 20-m square within a cotton field of ca. 1 acre. Four additional traps were placed a few meters outside the cotton field, located near imaginary diagonal lines extending through the corners of the square within the field. Each trap contained a cigarette filter with 1 mg of grandlure. Cigarette filters containing trans-2-hexen-1-ol were placed alternately in the traps. The result resembled an “X” array of traps placed across each field with each arm of the “X” consisting of four traps, two within and two outside of the field. Traps within one arm contained grandlure 1 mg alone; those within the other arm were baited with grandlure 1 mg+trans-2-hexen-1-ol at a particular dosage. Only one dosage of the synergist occurred in each field. Dosages of trans-2-hexen-1-ol tested were: 1 mg, 10 mg, and 100 mg. Traps were freshly baited each week and checked daily at 1500 hrs for 3 days and at the end of the week.

Assay [4] deals with Arizona boll weevils. The experiment in a line: Arizona third field experiment, traps around 20 cotton fields. To be noted: grandlure 5 mg + trans-2-hexen-1-ol 10 mg. Type of assay: in vivo, Anthonomus grandis. As for the experimental part: In a third field experiment, 20 cotton fields were selected. Three traps were placed at least 100 m apart along the edge of each field (60 traps total). The three traps were baited with one of the following treatments: 1) a 10-mg grandlure “Hercon” wafer; 2) 5 mg of grandlure in the same “Hercon” formulation; 3) the 5-mg grandlure
formulation+10 mg of trans-2-hexen-1-ol. The traps were checked daily and weevils were removed for the next 2 days.

The subject of assay [5] is Boll Weevils. As to the kind of experiment: Competitive field test with released weevils, four trap array. Type of assay: in vivo, Anthonomus grandis. The text has this:
The second series of experiments involved an array of four traps. […] The two treatments being tested simultaneously in this competitive arrangement were placed alternately in the traps, i.e., the two traps baited with the same treatment were located diagonally from each other. Odorants diluted in hexane were released from glass capillaries placed in small vials in a container in each trap. […] Traps were then immediately baited. In each test, traps were checked and insects were removed at 1530 hrs and 1700 hrs on the day of release, and before 0900 hrs the next day (the time at which the test was terminated) in order to remove those insects which might have responded prior to darkness on the day of release.

Assay [6] has as its system Over-Wintered Boll Weevils. The experiment in a line: Competitive field test with over-wintered boll weevils, 3 weeks. The assay is classed as in vivo, Anthonomus grandis. The conditions noted are these: trans-2-hexen-1-ol 10 mg changed weekly, grandlure Hercon wafer 2.5 mg kept 3 wk. As for the experimental part:
The efficacy of the synergist in enhancing response of over-wintered boll weevils to grandlure was evaluated during the first 3 wks of May 1988, prior to the planting of cotton. In this experiment, the synergist trans-2-hexen-1-ol at 10 mg was released from a cigarette filter, in combination with a Hercon wafer formulation of grandlure at 2.5 mg. The grandlure formulation remained in the trap for the entire 3-wk period, while the cigarette filter containing the synergist was changed each week. During both the first and second weeks, trap captures increased for both the pheromone alone and for the pheromone+the synergist, presumably reflecting increasing numbers of boll weevils emerging from over-wintering sites (Table VII). However, while trap captures continued to increase for the pheromone+synergist during the third week, the number of boll weevils captured by the pheromone alone declined.

Assay [7] concerns Arizona boll weevils. The experiment in a line: Arizona initial field experiment, 24 traps in a straight line, four treatments. Type of assay: in vivo, Anthonomus grandis. The conditions noted are these: 1, 10, 100 mg with grandlure 1 mg. As to the method:
Since boll weevils in this region differ genetically from those in the southeastern United States [Burke, Texas Agric. Exp. Sta. Tech. Rep., 152 pp. (1968)], these tests were performed to determine if green leaf volatiles would also enhance capture of Arizona boll weevils in traps baited with the aggregation pheromone.
In the initial field experiment, 24 traps were placed 30 m apart in a straight line along a road near Phoenix and were baited with four different treatments: 1) grandlure 1 mg; 2) grandlure 1 mg+trans-2-hexen-1-ol 1 mg; 3) grandlure 1 mg+trans-2-hexen-1-ol 10 mg; 4) grandlure 1 mg+trans-2-hexen-1-ol 100 mg. All compounds were released from cigarette filters after mixing in a solution to retard their rate of release, as previously described [McKibben et al., supra]. Treatments were arranged in six blocks with the four treatments randomized within each block. Traps were checked the next day.

Where [8] appears, read: volatiles emanating from 1 μg of odorant, cell responsive to crushed cotton square.

Each structure is given as a SMILES string.

As for `CCC/C=C/CO` [trans-2-hexen-1-ol], the “response of cells activated by volatiles from the crushed cotton square” value in assay [1] (single olfactory cells) is reported as “activated”. Moreover, in assay [1] (setting [8]), the “Response in impulses/initial 500 msec, Cell #1” value amounted to 83 impulses/initial 500 msec; the “Response in impulses/initial 500 msec, Cell #2” value is given as 67 impulses/initial 500 msec; the “Response in impulses/initial 500 msec, Cell #3” value was determined as 50 impulses/initial 500 msec; the “Response in impulses/initial 500 msec, Cell #4” value worked out at 33 impulses/initial 500 msec. Further, the “% Total” value in the assay on Boll Weevils [2] (grandlure 3 mg vs trans-2-hexen-1-ol 100 mg vs both) came to 5.9%. Besides, in the assay on Boll Weevils [2] (grandlure 3 mg vs trans-2-hexen-1-ol 100 mg vs both, three replicates), the “Mean Trap Capture” value is reported as 1.3 A. In addition, the “activity alone in competition with the other treatments” value with Boll Weevils [2] (triangular array, 100 mg alone) was “relatively inactive”. Besides, the “attraction of grandlure on addition of the compound, relative to grandlure alone” value with Boll Weevils [2] (triangular array, grandlure 3 mg, synergist 100 mg) is “significantly increased”. Moreover, in the assay with Boll Weevils [3], the “weevils captured in combination with grandlure 1 mg vs grandlure alone at 1 mg” value is given as “captured more weevils of both sexes”. Also, the “effect of addition to grandlure on attractiveness over the 10-mg grandlure treatment” value in the assay with Arizona boll weevils [4] is reported as “enhanced its attractiveness”. Besides, the “trap capture in combination with grandlure (0.8 mg) in competition with grandlure (0.8 mg) alone” value with Boll Weevils [5] (0.1 mg, P<0.10, paired t-test) is “increased trap capture”. Moreover, the “synergism with grandlure (0.8 mg) in competition with grandlure (0.8 mg) alone” value in the assay with Boll Weevils [5] (1.0 mg of the compound) is reported as “even more apparent”. For the same molecule, in the assay with Boll Weevils [5] (each presented with grandlure 0.8 mg in a competitive experiment), the “effectiveness in combination with grandlure (0.8 mg) vs the combination with 1-hexanol” value was “more effective”. Besides, the “effect of the synergist on effectiveness of the pheromone with time” value in assay [6] is recorded as “extend the effectiveness of the pheromone”. For the same molecule, the “effect of addition on trap capture over grandlure alone” value with Arizona boll weevils [7] is listed as “enhanced trap capture”.

The values above are taken from patent US6413508B1, “Green leaf volatiles as synergists for insect pheromones” (The United States of America as represented by the …, priority 1988, dated 2002).
